Test results as given in publication PMC10905675, “INX-315, a Selective CDK2 Inhibitor, Induces Cell Cycle Arrest and Senescence in Solid Tumors” (Cancer Discovery, 2023).

Key:
Assay in all cases: SelectScreen ZLYTE
Type in all cases: biochemical
Settings in all cases: INX-0315 at 100nM
MATK (HYL) = biological target: T1, MATK (HYL) (Homo sapiens, UniProt P42679)
T1 construct: purchased Thermo Fisher Scientific SelectScreen (plus Nanosyn / Reaction Biology for CDK/cyclin lines)
Excerpt: (§1) INX-315 was first evaluated in the SelectScreen Biochemical Kinase Profiling at Thermo Fisher Scientific (Madison, WI). The primary screen consisted of INX-315 dosed at a single concentration of 100 nmol/L in 1% DMSO across each platform within the SelectScreen array of assays, LanthaScreen Eu Kinase Binding Assay; AdaptaScreen; and Z'LyteScreen using preestablished conditions at Thermo Fisher Scientific as shown in Supplementary Table S2. […] The follow-up screen consisted of 10-point dose–response curves for INX-315 from 1 µmol/L to 0.0495 nmol/L.

CLK3 = biological target: T2, CLK3 (Homo sapiens, UniProt P49761)
T2 construct: purchased Thermo Fisher Scientific SelectScreen (plus Nanosyn / Reaction Biology for CDK/cyclin lines)
Excerpt: as §1

CDC42 BPB (MRCKB) = biological target: T3, CDC42 BPB (MRCKB) (Homo sapiens, UniProt Q9Y5S2)
T3 construct: purchased Thermo Fisher Scientific SelectScreen (plus Nanosyn / Reaction Biology for CDK/cyclin lines)
Excerpt: as §1

PRKCA (PKC alpha) = biological target: T4, PRKCA (PKC alpha) (Homo sapiens, UniProt P17252)
T4 construct: purchased Thermo Fisher Scientific SelectScreen (plus Nanosyn / Reaction Biology for CDK/cyclin lines)
Excerpt: as §1

RAF1 (cRAF) Y340D Y341D = biological target: T5, RAF1 (cRAF) Y340D Y341D (Homo sapiens, UniProt P04049, Y340D/Y341D)
T5 construct: purchased Thermo Fisher Scientific SelectScreen (plus Nanosyn / Reaction Biology for CDK/cyclin lines)
Excerpt: as §1

MAP3K8 (COT) = biological target: T6, MAP3K8 (COT) (Homo sapiens, UniProt P41279)
T6 construct: purchased Thermo Fisher Scientific SelectScreen (plus Nanosyn / Reaction Biology for CDK/cyclin lines)
Excerpt: as §1

LCK = biological target: T7, LCK (Homo sapiens, UniProt P06239)
T7 construct: purchased Thermo Fisher Scientific SelectScreen (plus Nanosyn / Reaction Biology for CDK/cyclin lines)
Excerpt: as §1

GSK3A (GSK3 alpha) = biological target: T8, GSK3A (GSK3 alpha) (Homo sapiens, UniProt P49840)
T8 construct: purchased Thermo Fisher Scientific SelectScreen (plus Nanosyn / Reaction Biology for CDK/cyclin lines)
Excerpt: as §1

AMPK A2/B1/G1 = biological target: T9, AMPK A2/B1/G1 (Homo sapiens, UniProt P54646)
T9 construct: purchased Thermo Fisher Scientific SelectScreen (plus Nanosyn / Reaction Biology for CDK/cyclin lines)
Excerpt: as §1

CSF1R (FMS) = biological target: T10, CSF1R (FMS) (Homo sapiens, UniProt P07333)
T10 construct: purchased Thermo Fisher Scientific SelectScreen (plus Nanosyn / Reaction Biology for CDK/cyclin lines)
Excerpt: as §1

RET V804L = biological target: T11, RET V804L (Homo sapiens, UniProt P07949, V804L)
T11 construct: purchased Thermo Fisher Scientific SelectScreen (plus Nanosyn / Reaction Biology for CDK/cyclin lines)
Excerpt: as §1

PRKX = biological target: T12, PRKX (Homo sapiens, UniProt P51817)
T12 construct: purchased Thermo Fisher Scientific SelectScreen (plus Nanosyn / Reaction Biology for CDK/cyclin lines)
Excerpt: as §1

KIT = biological target: T13, KIT (Homo sapiens, UniProt P10721)
T13 construct: purchased Thermo Fisher Scientific SelectScreen (plus Nanosyn / Reaction Biology for CDK/cyclin lines)
Excerpt: as §1

FGFR2 N549H = biological target: T14, FGFR2 N549H (Homo sapiens, UniProt P21802, N549H)
T14 construct: purchased Thermo Fisher Scientific SelectScreen (plus Nanosyn / Reaction Biology for CDK/cyclin lines)
Excerpt: as §1

AURKA (Aurora A) = biological target: T15, AURKA (Aurora A) (Homo sapiens, UniProt O14965)
T15 construct: purchased Thermo Fisher Scientific SelectScreen (plus Nanosyn / Reaction Biology for CDK/cyclin lines)
Excerpt: as §1

MST4 = biological target: T16, MST4 (Homo sapiens, UniProt Q9P289)
T16 construct: purchased Thermo Fisher Scientific SelectScreen (plus Nanosyn / Reaction Biology for CDK/cyclin lines)
Excerpt: as §1

EGFR (ErbB1) L861Q = biological target: T17, EGFR (ErbB1) L861Q (Homo sapiens, UniProt P00533, L861Q)
T17 construct: purchased Thermo Fisher Scientific SelectScreen (plus Nanosyn / Reaction Biology for CDK/cyclin lines)
Excerpt: as §1

CDK2/cyclin A = biological target: T18, CDK2/cyclin A (Homo sapiens, UniProt P24941)
T18 construct: purchased Thermo Fisher Scientific SelectScreen (plus Nanosyn / Reaction Biology for CDK/cyclin lines)
Excerpt: as §1

MAPK8 (JNK1) = biological target: T19, MAPK8 (JNK1) (Homo sapiens, UniProt P45983)
T19 construct: purchased Thermo Fisher Scientific SelectScreen (plus Nanosyn / Reaction Biology for CDK/cyclin lines)
Excerpt: as §1

MAPK3 (ERK1) = biological target: T20, MAPK3 (ERK1) (Homo sapiens, UniProt P27361)
T20 construct: purchased Thermo Fisher Scientific SelectScreen (plus Nanosyn / Reaction Biology for CDK/cyclin lines)
Excerpt: as §1

FRK (PTK5) = biological target: T21, FRK (PTK5) (Homo sapiens, UniProt P42685)
T21 construct: purchased Thermo Fisher Scientific SelectScreen (plus Nanosyn / Reaction Biology for CDK/cyclin lines)
Excerpt: as §1

PIM1 = biological target: T22, PIM1 (Homo sapiens, UniProt P11309)
T22 construct: purchased Thermo Fisher Scientific SelectScreen (plus Nanosyn / Reaction Biology for CDK/cyclin lines)
Excerpt: as §1

DYRK4 = biological target: T23, DYRK4 (Homo sapiens, UniProt Q9NR20)
T23 construct: purchased Thermo Fisher Scientific SelectScreen (plus Nanosyn / Reaction Biology for CDK/cyclin lines)
Excerpt: as §1

CAMK1G (CAMKI gamma) = biological target: T24, CAMK1G (CAMKI gamma) (Homo sapiens, UniProt Q96NX5)
T24 construct: purchased Thermo Fisher Scientific SelectScreen (plus Nanosyn / Reaction Biology for CDK/cyclin lines)
Excerpt: as §1

JAK3 = biological target: T25, JAK3 (Homo sapiens, UniProt P52333)
T25 construct: purchased Thermo Fisher Scientific SelectScreen (plus Nanosyn / Reaction Biology for CDK/cyclin lines)
Excerpt: as §1

AMPK (A1/B2/G3) = biological target: T26, AMPK (A1/B2/G3) (Homo sapiens, UniProt Q13131)
T26 construct: purchased Thermo Fisher Scientific SelectScreen (plus Nanosyn / Reaction Biology for CDK/cyclin lines)
Excerpt: as §1

NTRK3 (TRKC) = biological target: T27, NTRK3 (TRKC) (Homo sapiens, UniProt Q16288)
T27 construct: purchased Thermo Fisher Scientific SelectScreen (plus Nanosyn / Reaction Biology for CDK/cyclin lines)
Excerpt: as §1

BMX = biological target: T28, BMX (Homo sapiens, UniProt P51813)
T28 construct: purchased Thermo Fisher Scientific SelectScreen (plus Nanosyn / Reaction Biology for CDK/cyclin lines)
Excerpt: as §1

NTRK1 (TRKA) = biological target: T29, NTRK1 (TRKA) (Homo sapiens, UniProt P04629)
T29 construct: purchased Thermo Fisher Scientific SelectScreen (plus Nanosyn / Reaction Biology for CDK/cyclin lines)
Excerpt: as §1

PLK2 = biological target: T30, PLK2 (Homo sapiens, UniProt Q9NYY3)
T30 construct: purchased Thermo Fisher Scientific SelectScreen (plus Nanosyn / Reaction Biology for CDK/cyclin lines)
Excerpt: as §1

RET = biological target: T31, RET (Homo sapiens, UniProt P07949)
T31 construct: purchased Thermo Fisher Scientific SelectScreen (plus Nanosyn / Reaction Biology for CDK/cyclin lines)
Excerpt: as §1

FGFR3 = biological target: T32, FGFR3 (Homo sapiens, UniProt P22607)
T32 construct: purchased Thermo Fisher Scientific SelectScreen (plus Nanosyn / Reaction Biology for CDK/cyclin lines)
Excerpt: as §1

BTK = biological target: T33, BTK (Homo sapiens, UniProt Q06187)
T33 construct: purchased Thermo Fisher Scientific SelectScreen (plus Nanosyn / Reaction Biology for CDK/cyclin lines)
Excerpt: as §1

SBK1 = biological target: T34, SBK1 (Homo sapiens, UniProt Q52WX2)
T34 construct: purchased Thermo Fisher Scientific SelectScreen (plus Nanosyn / Reaction Biology for CDK/cyclin lines)
Excerpt: as §1

RPS6KA1 (RSK1) = biological target: T35, RPS6KA1 (RSK1) (Homo sapiens, UniProt Q15418)
T35 construct: purchased Thermo Fisher Scientific SelectScreen (plus Nanosyn / Reaction Biology for CDK/cyclin lines)
Excerpt: as §1

PRKD1 (PKC mu) = biological target: T36, PRKD1 (PKC mu) (Homo sapiens, UniProt Q15139)
T36 construct: purchased Thermo Fisher Scientific SelectScreen (plus Nanosyn / Reaction Biology for CDK/cyclin lines)
Excerpt: as §1

ERBB2 (HER2) = biological target: T37, ERBB2 (HER2) (Homo sapiens, UniProt P04626)
T37 construct: purchased Thermo Fisher Scientific SelectScreen (plus Nanosyn / Reaction Biology for CDK/cyclin lines)
Excerpt: as §1

T23 sequence (Q9NR20 whole entry): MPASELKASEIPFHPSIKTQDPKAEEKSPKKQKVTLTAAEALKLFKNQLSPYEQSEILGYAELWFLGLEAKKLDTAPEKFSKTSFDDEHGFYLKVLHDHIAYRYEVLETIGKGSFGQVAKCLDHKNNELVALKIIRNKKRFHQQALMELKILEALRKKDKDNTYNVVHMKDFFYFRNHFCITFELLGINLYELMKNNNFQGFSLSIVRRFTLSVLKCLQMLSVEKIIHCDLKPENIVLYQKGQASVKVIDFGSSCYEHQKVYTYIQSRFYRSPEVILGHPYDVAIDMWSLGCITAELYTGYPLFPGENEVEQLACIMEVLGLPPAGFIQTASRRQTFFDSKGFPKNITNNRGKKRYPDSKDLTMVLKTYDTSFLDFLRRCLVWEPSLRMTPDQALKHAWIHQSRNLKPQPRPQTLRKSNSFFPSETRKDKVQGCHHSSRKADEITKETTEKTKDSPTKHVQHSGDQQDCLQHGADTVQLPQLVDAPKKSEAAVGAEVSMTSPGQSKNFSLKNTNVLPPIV
T16 sequence (Q9P289 whole entry): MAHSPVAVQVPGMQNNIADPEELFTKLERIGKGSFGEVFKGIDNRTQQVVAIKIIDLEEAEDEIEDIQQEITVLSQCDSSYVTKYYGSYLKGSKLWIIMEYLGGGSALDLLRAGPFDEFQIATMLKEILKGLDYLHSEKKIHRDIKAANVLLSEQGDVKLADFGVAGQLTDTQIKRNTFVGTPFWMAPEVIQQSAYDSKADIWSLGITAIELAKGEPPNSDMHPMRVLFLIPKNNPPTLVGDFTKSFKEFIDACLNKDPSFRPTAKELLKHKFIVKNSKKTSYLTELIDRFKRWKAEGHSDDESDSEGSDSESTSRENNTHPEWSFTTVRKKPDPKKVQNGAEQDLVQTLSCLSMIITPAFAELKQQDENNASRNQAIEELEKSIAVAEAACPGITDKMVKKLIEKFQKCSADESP
T33 sequence (Q06187 whole entry): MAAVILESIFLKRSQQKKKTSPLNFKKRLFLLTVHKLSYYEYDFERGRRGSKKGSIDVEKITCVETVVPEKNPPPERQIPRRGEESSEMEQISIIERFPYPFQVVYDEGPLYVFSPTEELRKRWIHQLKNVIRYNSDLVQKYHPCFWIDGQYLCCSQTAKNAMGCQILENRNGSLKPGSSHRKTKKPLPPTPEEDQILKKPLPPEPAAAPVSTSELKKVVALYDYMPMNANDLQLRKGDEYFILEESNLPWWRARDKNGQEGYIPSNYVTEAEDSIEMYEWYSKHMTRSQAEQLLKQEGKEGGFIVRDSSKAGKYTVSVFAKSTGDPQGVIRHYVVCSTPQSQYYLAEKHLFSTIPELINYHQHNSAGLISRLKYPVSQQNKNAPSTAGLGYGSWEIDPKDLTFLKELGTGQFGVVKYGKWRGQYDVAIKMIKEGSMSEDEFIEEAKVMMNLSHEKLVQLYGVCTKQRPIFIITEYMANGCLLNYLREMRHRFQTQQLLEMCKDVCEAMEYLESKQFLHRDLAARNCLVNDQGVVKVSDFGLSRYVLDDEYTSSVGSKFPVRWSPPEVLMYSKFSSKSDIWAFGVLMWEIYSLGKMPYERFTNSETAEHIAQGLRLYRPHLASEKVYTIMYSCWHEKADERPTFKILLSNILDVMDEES
T3 sequence (Q9Y5S2 whole entry): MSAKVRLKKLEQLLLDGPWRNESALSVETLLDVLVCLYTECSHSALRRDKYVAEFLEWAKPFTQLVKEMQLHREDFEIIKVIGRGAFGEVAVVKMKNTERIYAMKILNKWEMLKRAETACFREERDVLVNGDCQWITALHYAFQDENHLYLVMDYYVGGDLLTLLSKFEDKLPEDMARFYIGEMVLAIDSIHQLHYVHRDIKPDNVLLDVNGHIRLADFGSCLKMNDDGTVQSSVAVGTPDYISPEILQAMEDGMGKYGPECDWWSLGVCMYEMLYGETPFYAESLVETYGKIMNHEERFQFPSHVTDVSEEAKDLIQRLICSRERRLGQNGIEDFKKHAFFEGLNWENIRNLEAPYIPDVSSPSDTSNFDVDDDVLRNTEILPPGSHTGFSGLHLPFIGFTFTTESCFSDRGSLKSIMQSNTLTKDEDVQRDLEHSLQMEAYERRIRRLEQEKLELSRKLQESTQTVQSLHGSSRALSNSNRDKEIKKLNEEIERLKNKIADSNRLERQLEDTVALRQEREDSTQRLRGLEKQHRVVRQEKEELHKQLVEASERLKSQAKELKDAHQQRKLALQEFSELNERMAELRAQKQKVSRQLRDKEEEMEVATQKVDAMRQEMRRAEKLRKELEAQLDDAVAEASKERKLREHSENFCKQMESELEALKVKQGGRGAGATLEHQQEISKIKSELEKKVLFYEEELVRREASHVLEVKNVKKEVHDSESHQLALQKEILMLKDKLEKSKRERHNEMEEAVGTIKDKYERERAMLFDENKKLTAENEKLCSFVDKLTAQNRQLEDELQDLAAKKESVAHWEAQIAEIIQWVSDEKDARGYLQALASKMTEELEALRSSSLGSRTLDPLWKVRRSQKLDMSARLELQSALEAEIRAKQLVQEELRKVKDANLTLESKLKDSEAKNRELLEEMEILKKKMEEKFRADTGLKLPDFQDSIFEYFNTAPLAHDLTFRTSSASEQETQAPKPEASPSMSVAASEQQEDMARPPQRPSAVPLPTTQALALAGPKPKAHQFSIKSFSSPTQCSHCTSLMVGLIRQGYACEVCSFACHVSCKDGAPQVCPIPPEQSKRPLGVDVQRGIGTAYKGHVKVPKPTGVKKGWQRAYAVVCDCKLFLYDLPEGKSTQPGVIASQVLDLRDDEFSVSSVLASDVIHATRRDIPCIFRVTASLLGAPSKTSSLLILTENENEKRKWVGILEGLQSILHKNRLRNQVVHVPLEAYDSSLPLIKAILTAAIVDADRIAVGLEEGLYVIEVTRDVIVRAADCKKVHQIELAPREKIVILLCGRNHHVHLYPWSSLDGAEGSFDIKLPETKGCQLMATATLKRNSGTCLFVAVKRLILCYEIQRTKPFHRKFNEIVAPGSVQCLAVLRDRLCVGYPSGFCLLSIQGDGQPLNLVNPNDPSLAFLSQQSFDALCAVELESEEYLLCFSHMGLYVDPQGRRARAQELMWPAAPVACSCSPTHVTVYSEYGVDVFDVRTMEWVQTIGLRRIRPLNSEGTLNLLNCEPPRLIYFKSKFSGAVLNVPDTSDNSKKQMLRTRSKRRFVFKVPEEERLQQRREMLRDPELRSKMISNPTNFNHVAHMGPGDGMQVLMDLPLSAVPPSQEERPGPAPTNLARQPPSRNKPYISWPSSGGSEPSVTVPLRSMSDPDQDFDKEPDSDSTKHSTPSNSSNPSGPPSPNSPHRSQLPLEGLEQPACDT
T19 sequence (P45983 whole entry): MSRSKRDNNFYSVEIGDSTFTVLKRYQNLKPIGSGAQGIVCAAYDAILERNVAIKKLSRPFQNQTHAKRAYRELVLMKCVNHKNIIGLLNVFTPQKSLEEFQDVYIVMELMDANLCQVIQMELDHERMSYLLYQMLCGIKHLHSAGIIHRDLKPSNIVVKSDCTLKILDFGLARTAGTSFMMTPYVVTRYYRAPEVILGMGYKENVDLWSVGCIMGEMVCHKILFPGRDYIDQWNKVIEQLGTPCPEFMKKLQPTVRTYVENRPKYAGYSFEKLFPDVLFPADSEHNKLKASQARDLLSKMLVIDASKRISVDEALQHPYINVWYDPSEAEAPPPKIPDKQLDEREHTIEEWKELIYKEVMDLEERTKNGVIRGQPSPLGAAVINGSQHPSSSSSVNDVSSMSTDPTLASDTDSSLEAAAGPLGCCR
T25 sequence (P52333 whole entry): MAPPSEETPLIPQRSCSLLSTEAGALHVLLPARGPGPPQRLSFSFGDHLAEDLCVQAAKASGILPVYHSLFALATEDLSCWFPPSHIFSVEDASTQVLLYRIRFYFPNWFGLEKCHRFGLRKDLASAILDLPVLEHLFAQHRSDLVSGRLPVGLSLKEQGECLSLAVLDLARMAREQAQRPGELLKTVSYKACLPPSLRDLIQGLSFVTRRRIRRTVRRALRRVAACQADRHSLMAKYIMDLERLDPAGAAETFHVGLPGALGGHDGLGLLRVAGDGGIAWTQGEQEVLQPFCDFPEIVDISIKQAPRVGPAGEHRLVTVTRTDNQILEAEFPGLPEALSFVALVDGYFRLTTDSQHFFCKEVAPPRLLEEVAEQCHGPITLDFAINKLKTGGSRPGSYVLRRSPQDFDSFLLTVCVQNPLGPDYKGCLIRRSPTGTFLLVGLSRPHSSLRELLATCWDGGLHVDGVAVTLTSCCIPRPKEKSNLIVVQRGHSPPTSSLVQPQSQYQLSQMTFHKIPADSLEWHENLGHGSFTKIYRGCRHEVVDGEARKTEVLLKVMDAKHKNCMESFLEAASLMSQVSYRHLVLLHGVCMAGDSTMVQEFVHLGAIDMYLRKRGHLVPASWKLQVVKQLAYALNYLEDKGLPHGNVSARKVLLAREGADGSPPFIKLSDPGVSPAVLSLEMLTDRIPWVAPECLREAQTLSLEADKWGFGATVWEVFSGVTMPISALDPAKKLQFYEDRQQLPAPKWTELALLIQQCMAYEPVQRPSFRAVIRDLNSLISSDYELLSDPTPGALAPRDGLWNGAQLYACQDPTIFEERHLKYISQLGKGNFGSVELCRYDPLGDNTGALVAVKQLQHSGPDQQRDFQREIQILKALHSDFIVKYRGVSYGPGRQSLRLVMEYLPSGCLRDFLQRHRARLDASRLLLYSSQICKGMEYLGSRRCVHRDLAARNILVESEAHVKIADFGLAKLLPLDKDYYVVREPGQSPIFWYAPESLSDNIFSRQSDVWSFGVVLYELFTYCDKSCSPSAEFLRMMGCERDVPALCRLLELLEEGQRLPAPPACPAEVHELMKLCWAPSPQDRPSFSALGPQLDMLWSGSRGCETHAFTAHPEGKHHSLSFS

For `NS(=O)(=O)c1ccc(Nc2ncc3cc4n(c3n2)C2(CCCCC2)C(=O)NN4)cc1` [INX-315], the inhibition at 0.1 µM (MATK (HYL)) was 6%, the inhibition at 0.1 µM (CLK3) was -1% and the inhibition at 0.1 µM (CDC42 BPB (MRCKB)) was -1%. The inhibition at 0.1 µM (PRKCA (PKC alpha)) was 9%, the inhibition at 0.1 µM (RAF1 (cRAF) Y340D Y341D) was 5% and the inhibition at 0.1 µM (MAP3K8 (COT)) was -1%. The inhibition at 0.1 µM (LCK) was 19%, the inhibition at 0.1 µM (GSK3A (GSK3 alpha)) was 11% and the inhibition at 0.1 µM (AMPK A2/B1/G1) was 5%. The inhibition at 0.1 µM (CSF1R (FMS)) was 95%, the inhibition at 0.1 µM (RET V804L) was 35% and the inhibition at 0.1 µM (PRKX) was 3%. It also gave an inhibition at 0.1 µM (KIT) of 9%, an inhibition at 0.1 µM (FGFR2 N549H) of 16% and an inhibition at 0.1 µM (AURKA (Aurora A)) of 38%. The inhibition at 0.1 µM (MST4) was -4%, the inhibition at 0.1 µM (EGFR (ErbB1) L861Q) was 3% and the inhibition at 0.1 µM (CDK2/cyclin A) was 100%. It also gave an inhibition at 0.1 µM (MAPK8 (JNK1)) of 6%, an inhibition at 0.1 µM (MAPK3 (ERK1)) of 2% and an inhibition at 0.1 µM (FRK (PTK5)) of 7%. It also gave an inhibition at 0.1 µM (PIM1) of 1%, an inhibition at 0.1 µM (DYRK4) of 3% and an inhibition at 0.1 µM (CAMK1G (CAMKI gamma)) of 0%. For the same compound, the inhibition at 0.1 µM (JAK3) was 24%, the inhibition at 0.1 µM (AMPK (A1/B2/G3)) was 60% and the inhibition at 0.1 µM (NTRK3 (TRKC)) was 84%. The inhibition at 0.1 µM (BMX) was 22%, the inhibition at 0.1 µM (NTRK1 (TRKA)) was 44% and the inhibition at 0.1 µM (PLK2) was 5%. The inhibition at 0.1 µM (RET) was 58%, the inhibition at 0.1 µM (FGFR3) was -3% and the inhibition at 0.1 µM (BTK) was 10%. It also gave an inhibition at 0.1 µM (SBK1) of 5%, an inhibition at 0.1 µM (RPS6KA1 (RSK1)) of 47% and an inhibition at 0.1 µM (PRKD1 (PKC mu)) of 9%. The inhibition at 0.1 µM (ERBB2 (HER2)) was 0%.
